Reference: patent US20190388389A1, “METHODS AND COMPOSITIONS OF CARNOSOL FOR INHIBITING UVB-INDUCED SKIN DAMAGE” (Ohio University, priority 2017, published 2019)

How the values were obtained:
HaCaT cells = assay: HaCaT transformation in soft agar after repeated UVB; type: cell-based, Human; details: 10 mJ/cm^2 UVB every 48 h for 14 days, soft agar 10 days; UVB alone about 3.5 fold
Protocol: FIG. 8: Carnosol decreases HaCaT transformation rate upon UVB radiation. HaCaT cells were exposed to 10 mJ/cm^2 UVB radiation every 48 h for 14 days. Cells were then collected and equal amount of cells were then re-seeded into 96 well plate with soft agar. After 10 days of incubation, cells were stained and dissolved and the fluorescent intensity was determined. *p<0.05 versus control group, **p<0.05 versus UV group.
HaCaT cells were exposed to 10 mJ/cm^2 UVB radiation every 48 h for 14 days. As only cancerous cells can survive in the soft-agar, by staining the survival cells with fluorescent dye, the cell transformation rate was determined.

NF-κB = assay: Western blot for S276 phosphorylation of NF-κB, HaCaT cells; type: cell-based, Human; details: 20 μM carnosol, 6 h post UVB
Protocol: FIGS. 7A-7F: Carnosol inhibited UVB-induced NF-κB activation. Cells were exposed to UVB radiation in the presence or absence of carnosol. Cells were lysed at indicated time point and protein levels were measured by western blot analysis. (FIG. 7A) Western blot for IκB protein level in HaCaT cells at 2, 4 h post UVB radiation at 1, 10 or 20 μM carnosol treatment. (FIG. 7B) Western blot analysis for IκB protein level in HaCaT cells at 6 h post UVB radiation in the presence or absence of carnosol. (FIG. 7C) Western blot analysis for IκB protein level in MEF cells at 6 h post UVB radiation in the presence or absence of carnosol. (FIG. 7D) Western blot for 5276 site phosphorylation of NF-κB in HaCaT cells at 6 h post UVB with indicated carnosol concentration. (FIG. 7E) EMSA assay for HaCaT cells at 2, 4, 6 h post UVB radiation in the presence or absence of carnosol (20 μM). (FIG. 7F) Statistical analysis of the EMSA assay using two to three sets of independent experiments. *p<0.05 versus control group, **p<0.05 versus UV group at indicated time point.
Cells were lysed with Nonidet P-40 (NP-40) lysis buffer (2% NP-40, 80 mM NaCl, 100 mM Tris-HCl pH 8.0, 0.1% SDS) with proteinase inhibitor mixture (Complete™, Roche Molecular Biochemicals) at indicated time point. […] Protein concentration was measured by Protein DC Assay kit (Bio-Rad Laboratories). […]

ONOO^− in HaCaT cells = assay: Peroxynitrite measurement (DAR) after UVB radiation; type: cell-based, Human; details: 20 μM carnosol
Protocol: FIGS. 4A-4B: Quantitative analysis of NO* and ONOO^− after UVB radiation. HaCaT cells were irradiated with UVB radiation in the presence or absence of carnosol (20 μM). At indicated time point, cells were stained with DAF-2DA or DAR. The fluorescent intensity was then measured and normalized to cell viability. (FIG. 4A) Quantitative measurement of NO*. (FIG. 4B) Quantitative measurement of ONOO^−. *p<0.05 versus corresponded group with carnosol treatment upon UVB radiation.
The level of NO* was measured by 5 mM diaminofluorescein diacetate (DAF-2DA) (ex490/em520 nm) and ONOO^− was measured by 5 mM diaminorhodamine (DAR) (ex488/em515 nm). 1×10^5 HaCaT cells were seeded in 96-well plate one day before measurement. […] The cells were then incubated in dark for 2 h at room temperature and the fluorescence was measured by luminometer (Molecular devices Spectra Max M2). The reading was then normalized by AlamarBlue cell viability assay (Life technology). 10% of the Alamar Blue reagent was added to cells with medium followed by 2 h incubation at 37° C. in dark then read the fluorescent at ex570/em590 nm using luminometer (Molecular devices Spectra Max M2).
Both NO* and ONOO^− are induced by UVB radiation. By using DAF-2DA (5 mM) and DAR (5 mM), the effect of carnosol on intracellular NO* and ONOO^− level, in a time dependent manner upon UVB radiation, was also measured.

phosphor-Chk [1] = assay: Western blot of DNA damage marker, HaCaT cells; type: cell-based, Human; details: 15 min and 1 h post UVB 50 mJ/cm^2
Protocol: (§1) FIGS. 5A-5B: Carnosol protects UVB-induced DNA damage. (FIG. 5A) HaCaT cells and (FIG. 5B) MEF cells were exposed to 50 mJ/cm^2 UVB radiation in the presence or absence of carnosol. Cells were lysed at indicated time point and protein levels of phosphorylated H2AX and Chk were measured. The data represents three sets of independent experiments.
(§2) Cells were lysed with Nonidet P-40 (NP-40) lysis buffer (2% NP-40, 80 mM NaCl, 100 mM Tris-HCl pH 8.0, 0.1% SDS) with proteinase inhibitor mixture (Complete™, Roche Molecular Biochemicals) at indicated time point. Cell lysate was incubated on ice for 15 min and then centrifuged at 14,000 rpm at 4° C. for 15 min. Protein concentration was measured by Protein DC Assay kit (Bio-Rad Laboratories). Equal amounts of protein were subjected on SDS-PAGE and transferred to a nitrocellulose membrane. The membrane was then blocked in 5% milk in Tris buffered saline plus Tween 20 ® (TBST) for 45 min and probed with anti-yH2AX (Cell Signaling), anti-pCHK (Cell Signaling), anti-p276-NF-κB (Santa Cruz), anti-NF-κB p65 (Santa Cruz), anti-IκB (Santa Cruz), or anti-β-actin (Santa Cruz) at 4° C. overnight. After washing with TBST, the membrane was incubated with corresponding HRP-conjugated anti-rabbit or anti-mouse antibody for 45 min at room temperature. […]

[2] = system: γH2AX (phosphorylated H2AX); assay: Western blot of DNA damage marker, HaCaT cells; type: cell-based, Human; details: 15 min and 1 h post UVB 50 mJ/cm^2
Protocol: as §1, §2

phosphor-Chk [3] = assay: Western blot of DNA damage marker, MEF cells; type: cell-based, mouse; details: early stage post UVB 50 mJ/cm^2
Protocol: as §1, §2

[4] = system: γH2AX (phosphorylated H2AX); assay: Western blot of DNA damage marker, MEF cells; type: cell-based, mouse; details: early stage post UVB 50 mJ/cm^2
Protocol: as §1, §2

With `CC(C)c1cc2c(c(O)c1O)[C@@]13CCCC(C)(C)[C@@H]1C[C@@H]2OC3=O` [carnosol] as the molecule, how does the cell transformation (HaCaT cells) read?
Its cell transformation is “about 2.2 fold”.

What about the “phosphorylation of NF-κB at Serine 276 (S276)” value (NF-κB) of the same molecule?
Its value is “reduces the phosphorylation”.

What about the “reduction of ONOO^− level” value (ONOO^− in HaCaT cells; average from 2 h to 24 h post UVB) of the same molecule?
Its value is “about 40%”.

What about the “ONOO^− level of cells without radiation” value (ONOO^− in HaCaT cells; no UVB) of the same molecule?
The value was “little effect”.

What about the “phosphorylation level of Chk” value (phosphor-Chk [1]) of the same molecule?
The value was “significantly reduced”.

And the “phosphorylation level of H2AX” value [2]?
Its value is “significantly reduced”.

What about the “phosphorylation level of Chk” value (phosphor-Chk [3]) of the same molecule?
Its value is “reduced”.

What about the “phosphorylation level of H2AX” value [4] of the same molecule?
Its value is “reduced”.
